Read-outs that look alike come from different tables or passages of the source.
Tests used:
Type in all cases: in vivo
[1] = tested on: Amaranthus retroflexus (AMARE); experiment: Pre-emergence herbicidal action against AMARE; conditions: visual scoring after about 3 weeks vs untreated controls
Summary of the method: (§1)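 Pre-emergence soil-surface spray, WP/EC formulation, 0.5% additive, 600 l/ha water, rates of 320 g/ha or lower. Greenhouse, ~3 wk. Visual score, % of untreated control (100% = plants dead, 0% = like control).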

[2] = tested on: Echinochloa crus-galli (ECHCG); experiment: Pre-emergence herbicidal action against ECHCG
Summary of the method: as §1

[3] = tested on: Lolium rigidum (LOLRI); experiment: Pre-emergence herbicidal action against LOLRI
Summary of the method: as §1

[4] = tested on: Matricaria inodora (MATIN); experiment: Pre-emergence herbicidal action against MATIN; conditions: dosage 320 g/ha
Summary of the method: as §1

[5] = tested on: Polygonum convolvulus (POLCO); experiment: Pre-emergence herbicidal action against POLCO
Summary of the method: as §1

[6] = tested on: Setaria viridis (SETVI); experiment: Pre-emergence herbicidal action against SETVI
Summary of the method: as §1

[7] = tested on: Viola tricolor (VIOTR); experiment: Pre-emergence herbicidal action against VIOTR; conditions: 320 g/ha, Viola tricolor
Summary of the method: as §1

[8] = tested on: Triticum aestivum (TRZAS); conditions: pre-emergence, 80 g/ha, crop plant compatibility, in comparison to untreated controls
Summary of the method: (§2)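 Crop injury rated visually in percent against untreated plants roughly 3 weeks after treatment (0% no effect, 100% plants dead). Compounds, as WP or EC with 0.5% additive in 600 l/ha water, were applied to the covering soil right after sowing; greenhouse growth. Suffixes a, b, c denote different dosages.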

[9] = tested on: Zea mays (ZEAMX); conditions: pre-emergence, 80 g/ha, crop plant compatibility, in comparison to untreated controls
Summary of the method: as §2

[10] = tested on: Abutilon theophrasti (ABUTH); experiment: Post-emergence herbicidal action against ABUTH; conditions: visual rating about 3 weeks after treatment vs untreated controls (100% = plants have died, 0% = like control plants)
Summary of the method: (§3)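 Doses of 320 g/ha or lower, suffixes a, b and c marking different dosages, were applied post-emergence at the one-leaf stage in 600 l/ha water with 0.5% additive. Damage was assessed visually after about 3 weeks in the greenhouse.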

[11] = tested on: Alopecurus myosuroides (ALOMY); experiment: Post-emergence herbicidal action against ALOMY; conditions: visual rating about 3 weeks after treatment vs untreated controls (100% = plants have died, 0% = like control plants)
Summary of the method: as §3

[12] = tested on: Amaranthus retroflexus (AMARE); experiment: Post-emergence herbicidal action against AMARE
Summary of the method: as §3

[13] = tested on: Avena fatua (AVEFA); experiment: Post-emergence herbicidal action against AVEFA; conditions: visual rating about 3 weeks after treatment
Summary of the method: as §3

[14] = tested on: Echinochloa crus-galli (ECHCG); experiment: Post-emergence herbicidal action against ECHCG
Summary of the method: as §3

[15] = tested on: Lolium rigidum (LOLRI); experiment: Post-emergence herbicidal action against LOLRI
Summary of the method: as §3

[16] = tested on: Pharbitis purpurea (PHBPU); experiment: Post-emergence herbicidal action against PHBPU
Summary of the method: as §3

[17] = tested on: Polygonum convolvulus (POLCO); experiment: Post-emergence herbicidal action against POLCO
Summary of the method: as §3

[18] = tested on: Oryza sativa (ORYSA); conditions: crop plant compatibility, effect in comparison to untreated controls
Summary of the method: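 Test crops were treated 2 to 3 weeks after sowing, once they reached one leaf, by spraying compound in water with 0.5% additive at 600 l/ha. Visual scoring compared them with untreated controls roughly 3 weeks on, and appendices a, b and c denote different doses.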

[19] = tested on: Abutilon theophrasti (ABUTH); experiment: Pre-emergence herbicidal action against ABUTH; conditions: Dosage column 320 g/ha (title prints 3200 g/ha); scored visually after about 3 weeks; 100% = plants have died
Summary of the method: as §1

[20] = tested on: Alopecurus myosuroides (ALOMY); experiment: Pre-emergence herbicidal action against ALOMY; conditions: scored visually after about 3 weeks, 100% = plants have died
Summary of the method: as §1

[21] = tested on: Avena fatua (AVEFA); experiment: Pre-emergence herbicidal action against AVEFA; conditions: 320 g/ha, visual scoring after about 3 weeks vs untreated controls
Summary of the method: as §1

[22] = tested on: Pharbitis purpurea (PHBPU); experiment: Pre-emergence herbicidal action against PHBPU
Summary of the method: as §1

[23] = tested on: Verconica persica (VERPE); experiment: Pre-emergence herbicidal action against VERPE
Summary of the method: as §1

[24] = tested on: Oryza sativa (ORYSA); conditions: pre-emergence, 80 g/ha, crop plant compatibility, in comparison to untreated controls
Summary of the method: as §2

[25] = tested on: Matricaria inodora (MATIN); experiment: Post-emergence herbicidal action against MATIN; conditions: dosage 320 g/ha
Summary of the method: as §3

[26] = tested on: Setaria viridis (SETVI); experiment: Post-emergence herbicidal action against SETVI
Summary of the method: as §3

[27] = tested on: Verconica persica (VERPE); experiment: Post-emergence herbicidal action against VERPE
Summary of the method: as §3

[28] = tested on: Viola tricolor (VIOTR); experiment: Post-emergence herbicidal action against VIOTR
Summary of the method: as §3

[29] = 320 g/ha, visual rating about 3 weeks after treatment

Q: `CCOC(=O)COc1nn(-c2ccccn2)c(-c2ccc(F)nc2)c1[N+](=O)[O-]` [Example I-359] was tested. Which “Pre-emergence action against AMARE in %” value ([1]; 320 g/ha) did it give?
A: Its value is 90%.

Q: And the “Pre-emergence action against ECHCG in %” value ([2]; dosage 320 g/ha)?
A: The value was 80%.

Q: And the “Pre-emergence action against LOLRI in %” value ([3]; dosage 320 g/ha)?
A: The value was 80%.

Q: What about the “Pre-emergence action against MATIN in %” value [4] of the same compound?
A: The value was 90%.

Q: What about the “Pre-emergence action against POLCO in %” value ([5]; dosage 320 g/ha) of the same compound?
A: The value was 80%.

Q: What about the “Pre-emergence action against SETVI in %” value ([6]; dosage 80 g/ha) of the same compound?
A: Its value is 90%.

Q: What about the “Pre-emergence action against SETVI in %” value ([6]; dosage 320 g/ha) of the same compound?
A: The value was 100%.

Q: What about the “Pre-emergence action against VIOTR in %” value [7] of the same compound?
A: Its value is 100%.

Q: What about the “Pre-emergence action against TRZAS in %” value [8] of the same compound?
A: The value was 0%.

Q: What about the “Pre-emergence action against ZEAMX in %” value [9] of the same compound?
A: Its value is 10%.

Q: And the “Post-emergence action against ABUTH in %” value ([10]; 320 g/ha)?
A: Its value is 80%.

Q: What about the “Post-emergence action against ALOMY in %” value ([11]; 320 g/ha) of the same compound?
A: The value was 90%.

Q: What about the “Post-emergence action against AMARE in %” value [12, 29] of the same compound?
A: The value was 90%.

Q: What about the “Post-emergence action against AVEFA in %” value ([13]; 320 g/ha) of the same compound?
A: Its value is 90%.

Q: What about the “Post-emergence action against ECHCG in %” value ([14]; dosage 320 g/ha) of the same compound?
A: The value was 80%.

Q: What about the “Post-emergence action against LOLRI in %” value ([15]; dosage 320 g/ha) of the same compound?
A: The value was 80%.

Q: And the “Post-emergence action against PHBPU in %” value ([16]; dosage 320 g/ha)?
A: The value was 80%.

Q: What about the “Post-emergence action against POLCO in %” value ([17]; dosage 320 g/ha) of the same compound?
A: Its value is 80%.

Q: And the “Post-emergence action against ORYSA in %” value ([18]; 80 g/ha)?
A: The value was 0%.

Q: What about the “Post-emergence action against ORYSA in %” value ([18]; 320 g/ha) of the same compound?
A: Its value is 0%.

Q: Which results are given for `COCCOC(=O)COc1nn(-c2ccccn2)c(-c2ccc(F)nc2)c1Br` [Example I-96]?
A: Pre-emergence action against ABUTH [19]: 80%; Pre-emergence action against ALOMY ([20]; 80 g/ha): 80%; Pre-emergence action against ALOMY ([20]; 320 g/ha): 100%; Pre-emergence action against AMARE in % ([1]; 80 g/ha): 90%; Pre-emergence action against AMARE in % ([1]; 320 g/ha): 100%; Pre-emergence action against AVEFA in % [21]: 90%; Pre-emergence action against ECHCG in % ([2]; dosage 80 g/ha): 80%; Pre-emergence action against ECHCG in % ([2]; dosage 320 g/ha): 100%; Pre-emergence action against LOLRI in % ([3]; dosage 80 g/ha): 90%; Pre-emergence action against LOLRI in % ([3]; dosage 320 g/ha): 100%; Pre-emergence action against MATIN in % [4]: 100%; Pre-emergence action against PHBPU in % ([22]; dosage 80 g/ha): 90%; Pre-emergence action against PHBPU in % ([22]; dosage 320 g/ha): 90%; Pre-emergence action against POLCO in % ([5]; dosage 80 g/ha): 90%; Pre-emergence action against POLCO in % ([5]; dosage 320 g/ha): 90%; Pre-emergence action against SETVI in % ([6]; dosage 80 g/ha): 100%; Pre-emergence action against SETVI in % ([6]; dosage 320 g/ha): 100%; Pre-emergence action against VERPE in % ([23]; dosage 80 g/ha): 90%; Pre-emergence action against VERPE in % ([23]; dosage 320 g/ha): 90%; Pre-emergence action against VIOTR in % [7]: 90%; Pre-emergence action against ORYSA in % [24]: 20%; Pre-emergence action against ZEAMX in % [9]: 0%; Post-emergence action against ABUTH in % ([10]; 80 g/ha): 90%; Post-emergence action against ABUTH in % ([10]; 320 g/ha): 90%; Post-emergence action against ALOMY in % ([11]; 80 g/ha): 90%; Post-emergence action against ALOMY in % ([11]; 320 g/ha): 90%; Post-emergence action against AMARE in % ([12]; 80 g/ha, visual rating about 3 weeks after treatment vs untreated controls (100% = plants have died, 0% = like control plants)): 80%; Post-emergence action against AMARE in % [12, 29]: 80%; Post-emergence action against AVEFA in % ([13]; 80 g/ha): 80%; Post-emergence action against AVEFA in % ([13]; 320 g/ha): 90%; Post-emergence action against ECHCG in % ([14]; dosage 80 g/ha): 90%; Post-emergence action against ECHCG in % ([14]; dosage 320 g/ha): 90%; Post-emergence action against LOLRI in % ([15]; dosage 80 g/ha): 90%; Post-emergence action against LOLRI in % ([15]; dosage 320 g/ha): 90%; Post-emergence action against MATIN in % [25]: 80%; Post-emergence action against PHBPU in % ([16]; dosage 80 g/ha): 90%; Post-emergence action against PHBPU in % ([16]; dosage 320 g/ha): 90%; Post-emergence action against POLCO in % ([17]; dosage 80 g/ha): 80%; Post-emergence action against POLCO in % ([17]; dosage 320 g/ha): 80%; Post-emergence action against SETVI in % ([26]; dosage 80 g/ha): 90%; Post-emergence action against SETVI in % ([26]; dosage 320 g/ha): 90%; Post-emergence action against VERPE in % ([27]; 320 g/ha, VERPE): 90%; Post-emergence action against VERPE in % ([27]; dosage 80 g/ha): 80%; Post-emergence action against VIOTR in % ([28]; 80 g/ha): 90%; Post-emergence action against VIOTR in % ([28]; 320 g/ha): 90%

— US20240041042A1, “1-(PYRIDYL)-5-AZINYLPYRAZOLE DERIVATIVES, AND THEIR USE FOR CONTROL OF UNDESIRED PLANT GROWTH” (Bayer Aktiengesellschaft, priority 2020, published 2024)
